Data set [1] concerns colorectal cancer organoids. Kind of data set: Inhibition of colorectal cancer organoid growth by bortezomib (cell killing control). To be noted: at 1 μM; three cancer organoids; image analysis and CellTitreGlo 3D (FIG. 17). It counts as cell-based, human. Here is the method:
The bortezomib concentration of 1 um was selected as positive (killing) control, indicated by the dashed red line.
Organoids were digested with TrypLE Express enzyme at 37° C. for 15-20 min. Digestion was terminated in 1% BSA in DMEM/F12 and fragments were collected by centrifugation. Pellets were resuspended in culture medium, dissociated with a 26 G needle and filtered through a 40 μm cell strainer (Bio-Strategy, BDAA352340) to produce a single cell suspension. Live cells were counted using a hemocytometer and trypan blue staining. Single cells (3000 cells in 60 μl/well) were suspended in culture medium with 3% Matrigel, penicillin-streptomycin, normocin and 10 μM Y27632 and seeded in 384-well optical plates (Thermo Fisher Scientific, NUN242764) using a MANTIS® liquid handling robot (Formulatrix), and established for 3 days prior to drug addition. […]
Plate uniformity in the 384-well format was evaluated for maximum (Max) signals, minimum (Min) signals, and drug dose-dependent midpoint (Mid) signals (FIG. 15c-f). […] Organoid viability was determined by both image analysis and CellTiter-Glo 3D luminescence measurements. Mean organoid size and luminescence signals were visualized as heatmaps for each plate and plotted by wells for each plate row from left to right or as drug dose-response curves.

The conditions of data set [2]: physiological concentrations observed in patients; cited from earlier work.
A further data set has as its system mitochondrial function. To be noted: Weng, Z. et al. (2015) Toxicology 327, 10-21; cited from earlier work.
Data set [3] has as its system cancer organoid WCB024T. The data set can be described thus: Regorafenib dose-response in 384-well LVM suspension culture, image analysis (mean organoid size). It counts as cell-based. The note with it: Homo sapiens, 168 h, imaging, 7 days drug, 3% Matrigel, read-out: Mean ED50. Here is the method:
(§1) Organoids were digested with TrypLE Express enzyme at 37° C. for 15-20 min. Digestion was terminated in 1% BSA in DMEM/F12 and fragments were collected by centrifugation. Pellets were resuspended in culture medium, dissociated with a 26 G needle and filtered through a 40 μm cell strainer (Bio-Strategy, BDAA352340) to produce a single cell suspension. Live cells were counted using a hemocytometer and trypan blue staining. Single cells (3000 cells in 60 μl/well) were suspended in culture medium with 3% Matrigel, penicillin-streptomycin, normocin and 10 μM Y27632 and seeded in 384-well optical plates (Thermo Fisher Scientific, NUN242764) using a MANTIS® liquid handling robot (Formulatrix), and established for 3 days prior to drug addition. For plate uniformity studies, 1 μM bortezomib (Selleck, S1013) was used as the positive control, and 0.5% DMSO (Sigma, D2650) was used as a negative vehicle control. For the drug-dose response curves, regorafenib (Selleck, S1178) was used in a 9 point 4-fold titration series starting at 50 μM. All compound plates were prepared using a JANUS liquid handling robot (PerkinElmer) and stamped into 384-well plates using an integrated PinTool addition accessory (PerkinElmer).
(§2) PDTOs were imaged every 24 h for 7 days by bright-field microscopy as z-stacks on an automated Eclipse Ti2 Inverted Microscope System with an integrated tissue culture incubator (Nikon). 384-well images were captured using a 4× dry objective and Nikon Eclipse Ti2 software with a 25 μm Z-stack over a range of 500 μm. On day 7, 20μl CellTiter-Glo 3D reagent (Promega, G9683) was added using the MANTIS® liquid handling robot, plates were shaken at 1000 rpm for 30 mins at room temperature and luminescence measured using an EnVision plate reader (PerkinElmer).
(§3) For image analysis, flattening of Z-stack bright-field images, removal of background debris and selection of organoids were performed using ImageJ software (NIH Image). The projection of z-stack images onto a single in-focus image was carried out using the Extended Depth of Field (EDF) plugin in “easy mode”, with the parameter quality=′1′ and topology=1′. Processed images were exported as high-quality tiff files. Background debris removal was performed by with a series of steps including Subtract Background, Enhance Local Contrast (CLAHE), set AutoThreshold, set Black Background, and Convert to Mask. Organoid selection and feature extraction were achieved using sequential Analyze Particles, Invert LUT, Fill Holes, Watershed, Set Measurements and Analyze Particles steps. Features of selected organoids were exported as text files for determination of mean organoid size.
(§4) For comparison of uniformity of regorafenib dose response curves between imaging and CellTitreGlo 3D data, response curves were fitted using a 4-parameter log-logistic function to percent viability data.
(§5) Plate uniformity in the 384-well format was evaluated for maximum (Max) signals, minimum (Min) signals, and drug dose-dependent midpoint (Mid) signals (FIG. 15c-f). To determine Max signals, organoids were established for 3 days, treated with 0.5% DMSO (vehicle control) using a JANUS Automated Liquid Handling Workstation with a 384 pin tool, and incubated for 7 days. […] To evaluate dose-dependent Mid signals, regorafenib was titrated across each half of the assay plate in a 9-step, 4-fold dilution series starting from 50 μM, generating a total of 24 drug dose-response curves. Organoid viability was determined by both image analysis and CellTiter-Glo 3D luminescence measurements. Mean organoid size and luminescence signals were visualized as heatmaps for each plate and plotted by wells for each plate row from left to right or as drug dose-response curves.

In data set [4] the test system is cancer organoid WCB088T. Described as above. Type of data set: cell-based. The note with it: Homo sapiens, 168 h, imaging, 7 days drug, 3% Matrigel, read-out: Mean ED50. The procedure: as §1, §2, §3, §4, §5
Data set [5] concerns cancer organoid WCB123LU. The description is as above. Type of data set: cell-based. To be noted: Homo sapiens, 168 h, imaging, 7 days drug, 3% Matrigel, read-out: Mean ED50. The procedure: as §1, §2, §3, §4, §5
The test system of data set [6] is cancer organoid WCB024T. Kind of data set: Regorafenib dose-response in 384-well LVM suspension culture, CellTitre-Glo 3D viability assay. It counts as cell-based. To be noted: Homo sapiens, 168 h, 7 days drug, 3% Matrigel, read-out: Mean ED50. The procedure: as §1, §2, §4, §5
The subject of data set [7] is cancer organoid WCB088T. The description is as above. It counts as cell-based. The note with it: Homo sapiens, 168 h, 7 days drug, 3% Matrigel, read-out: Mean ED50. The procedure:
as §1, §2, §4, §5

Data set [8] relates to cancer organoid WCB123LU. The data set is described as above. Type of data set: cell-based. The note with it: Homo sapiens, 168 h, 7 days drug, 3% Matrigel, read-out: Mean ED50. The procedure:
as §1, §2, §4, §5

One may read the Cmax as the highest concentration seen after dosing.

As to `CC(C)C[C@H](NC(=O)[C@H](Cc1ccccc1)NC(=O)c1cnccn1)B(O)O` [bortezomib], the “growth inhibition (cell killing control)” value in data set [1] was “complete growth inhibition”.

For the molecule `CCc1c2c(nc3ccc(O)cc13)-c1cc3c(c(=O)n1C2)COC(=O)[C@]3(O)CC` [SN-38], the Cmax in data set [2] is approximately 0.14 µM.

`O=c1[nH]cc(F)c(=O)[nH]1` [5-FU, 5-fluorouracil]: the Cmax in data set [2] is approximately 7.5 µM.

Consider `O=C1[O][Pt]2([NH][C@@H]3CCCC[C@H]3[NH]2)[O]C1=O` [oxaliplatin], for which the Cmax in data set [2] is approximately 5 µM.

As to TAS-102, the Cmax in data set [2] is approximately 18.2 µM.

Regarding `CNC(=O)c1cc(Oc2ccc(NC(=O)Nc3ccc(Cl)c(C(F)(F)F)c3)c(F)c2)ccn1` [regorafenib], in data set [2], the Cmax was approximately 7.3 µM. Further, the “effect on mitochondrial function and cellular ATP levels” value with mitochondrial function was “impair mitochondrial function and decrease cellular ATP levels”. Moreover, the EC50 stood at 1.54 µM in the data set with cancer organoid WCB024T [3] (Mid (Left) plate half); 2.28 µM with cancer organoid WCB024T [3] (Mid (Right) plate half); 6.09 µM in the data set with cancer organoid WCB088T [4] (Mid (Left) plate half); 10.2 µM in the data set with cancer organoid WCB088T [4] (Mid (Right) plate half); 1.23 µM with cancer organoid WCB123LU [5] (Mid (Left) plate half); 1.56 µM in the data set with cancer organoid WCB123LU [5] (Mid (Right) plate half). Moreover, the EC50 in the data set on cancer organoid WCB024T [6] (Mid (Left) plate half) was determined as 3.69 µM; in the data set on cancer organoid WCB024T [6] (Mid (Right) plate half), 5.15 µM; in the data set with cancer organoid WCB088T [7] (Mid (Left) plate half), 1.98 µM; with cancer organoid WCB088T [7] (Mid (Right) plate half) it was 3.41 µM; in the data set with cancer organoid WCB123LU [8] (Mid (Left) plate half), 1.01 µM; in the data set with cancer organoid WCB123LU [8] (Mid (Right) plate half), 1.1 µM.

(Values after patent US20230029554A1, “ORGANOID CULTURES” (THE WALTER AND ELIZA HALL INSTITUTE OF MEDECAL RESEARCH, priority 2019, published 2023).)
